Like-named read-outs stand apart in the source and are kept apart here.
What was measured:
[1] = Human hepatocyte intrinsic clearance assay; assay type: in vitro ADME; conditions: human hepatocytes
Procedure: Human hepatocytes (LiverPool™ 10-Donor Human hepatocytes (Mixed Gender, PEG-free, Product No. S01205, 5 million cells per vial) were obtained from BioreclamationIVT. DMSO was sourced from Solarbio S&T Co Ltd. Leibovitz's L-15 Medium, Williams' Medium E, GlutaMAX™-1 (100×), HEPES, DPBS (10×) and Human Recombinant Insulin Solution were purchased from Gibco. Isotonic Percoll Solution was purchased from GE Healthcare. Fetal Bovine Serum (FBS) was purchased from Corning.
10 mM dexamethasone stock solution was prepared by dissolving 3.9 mg dexamethasone in 1 mL of DMSO. An Isotonic Percoll Solution was prepared by dilution of Percoll with DPBS (10×). 15 mL of Isotonic Percoll Solution (90% Percoll/10% DPBS) was added to 31.25 mL William's E medium containing 500 mL of GlutaMAX™-1 (100×), 750 mL of 1M HEPES, 2.5 mL of 5% FBS, 50 mL of 4 mg/mL Human Recombinant Insulin Solution and 5 mL of the 10 mM dexamethasone stock.
2 mL of 10 mM DMSO stock solutions of test compound were added to 198 mL acetonitrile to produce 100 mmol/L concentration.
The human hepatocyte vial was thawed at 37° C. in a waterbath. Once thawed, contents were poured into a 50 mL conical tube and centrifuged at 100 g for 10 minutes. The thawing medium was poured out and 4 mL L-15 medium was added. The tube was gently shaken to resuspend the hepatocytes and cells were counted with an appropriate cell counter. 247.5 mL of the hepatocyte suspension was transferred into each well of the plate and pre-warmed at 600 rpm and 50° C. to enable the temperature to rise to 37° C.
2.5 mL of the […] test compound solution was added to initiate the reaction (final concentration […]) and incubated at 37° C. with shaking at 900 rpm. At 0.5, 5, 15, 30, 45, 60, 80, 100 and 120 minutes, 20 mL was taken into a quenching solution of acetonitrile containing internal standards. The mix was vortexed at 800 rpm for 2 minutes followed by centrifugation for 20 minutes at 4000 rpm at 4° C. 40 mL of supernatant was transferred into a 96 well analysis plate containing 160 mL of water in each well. The analysis plate was shaken at 100 rpm for 2 minutes prior to analysis by LC-MS/MS.
Peak areas were determined from extracted ion chromatograms. Percent parent remaining was calculated from peak area of test compound. The slope value, k, was determined by linear regression of the natural logarithm of percent parent remaining versus incubation time.
The in vitro intrinsic clearance (in vitro CLint in mL/min/10^6 cells) was determined from the slope value using the following equation: […]
where V is the incubation volume (0.25 mL) and N is the number of hepatocytes per well (0.25×10^6 cells).

MOLM-13 cells = assay: Proliferation assay, MOLM-13 (CellTiter-Glo, 7 days); assay type: cell-based, human
Outline: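 Cells were seeded at line-specific low densities for linear growth, exposed to 3.16-fold serial compound dilutions at 0.1% DMSO, and incubated 7 days at 37 °C, 5% CO2. Viability was read by CellTiter-Glo 2.0 luminescence; IC50 came from one-site fits of % inhibition, normalized between DMSO-treated cells (100%) and a day-0 plate (0%).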

HH CLint [1]	IC50 (MOLM-13 cells; Homo sapiens, MOLM-13, 168 h)	SMILES	IC50 (MOLM-13 cells)
1.7 μl/min/1E6	42 nM	CC(C)c1ccncc1-c1cc(F)ccc1-n1cc(C(=O)C2CCN(C(=O)[C@H]3N[C@@H]4CC[C@H]3C4)CC2)c2ccncc21 [Example 41, (1-((1R,3S,4S)-2-Azabicyclo[2.2.1]heptane-3-carbonyl)piperidin-4-yl)(1-(4-fluoro-2-(4-isopropylpyridin-3-yl)phenyl)-1H-pyrrolo[2,3-c]pyridin-3-yl)methanone]	
3.8 μl/min/1E6	121 nM	CCN(C(=O)c1cc(F)ccc1-n1cc(C(=O)C2CN(C(=O)[C@H]3NC4CCC3CC4)C2)c2ccncc21)C(C)C [Example 9, (S)-2-(3-(1-(2-Azabicyclo[2.2.2]octane-3-carbonyl)azetidine-3-carbonyl)-1H-pyrrolo[2,3-c]pyridin-1-yl)-N-ethyl-5-fluoro-N-isopropylbenzamide]	
<1.0 μl/min/1E6	61 nM	O=C(c1cn(-c2ccc(F)cc2-c2cncnc2C2CC2)c2cnccc12)C1CCN(C(=O)[C@H]2N[C@@H]3CC[C@H]2C3)CC1 [Example 40, (1-((1R,3S,4S)-2-Azabicyclo[2.2.1]heptane-3-carbonyl)piperidin-4-yl)(1-(2-(4-cyclopropylpyrimidin-5-yl)-4-fluorophenyl)-1H-pyrrolo[2,3-c]pyridin-3-yl)methanone]	
<1.0 μl/min/1E6	105 nM	CC(C)N(C(=O)c1cc(F)ccc1-n1cc(C(=O)[C@H]2CCN(C(=O)[C@H]3N[C@@H]4CC[C@H]3C4)C2)c2ccncc21)C(C)C [Example 2, 2-(3-((S)-1-((1R,3S,4S)-2-Azabicyclo[2.2.1]heptane-3-carbonyl)pyrrolidine-3-carbonyl)-1H-pyrrolo[2,3-c]pyridin-1-yl)-5-fluoro-N,N-diisopropylbenzamide]	
<1.0 μl/min/1E6	35 nM	CC(C)N(C(=O)c1cc(F)ccc1-n1cc(C(=O)C2CCN(C(=O)[C@H]3N[C@@H]4CC[C@H]3C4)CC2)c2ccncc21)C(C)C [Example 16, 2-(3-(1-((1R,3S,4S)-2-Azabicyclo[2.2.1]heptane-3-carbonyl)piperidine-4-carbonyl)-1H-pyrrolo[2,3-c]pyridin-1-yl)-5-fluoro-N,N-diisopropylbenzamide]	
<1.0 μl/min/1E6	52 nM	CCN(C(=O)c1cc(F)ccc1-n1c(C)c(C(=O)C2CCN(C(=O)[C@H]3N[C@@H]4CC[C@H]3C4)CC2)c2ccncc21)C(C)C [Example 46, 2-(3-(1-((1R,3S,4S)-2-Azabicyclo[2.2.1]heptane-3-carbonyl)piperidine-4-carbonyl)-2-methyl-1H-pyrrolo[2,3-c]pyridin-1-yl)-N-ethyl-5-fluoro-N-isopropylbenzamide]	
<1.0 μl/min/1E6		CCN(C(=O)c1cc(F)ccc1-n1c(C)c(C(=O)C2CCN(C(=O)[C@@H]3CCC(C)(C)N3)CC2)c2ccncc21)C(C)C (single isomer, unassigned) [Example 50-2]	44 nM
1.2 μl/min/1E6	107 nM	CC(C)N(C(=O)c1cc(F)ccc1-n1cc(C(=O)C2CCN(C[C@H]3CC[C@H](NS(C)(=O)=O)CC3)CC2)c2ccncc21)C(C)C [Example 17, 5-Fluoro-N,N-diisopropyl-2-(3-(1-(((1r,4r)-4-(methylsulfonamido)cyclohexyl)-methyl)piperidine-4-carbonyl)-1H-pyrrolo[2,3-c]pyridin-1-yl)benzamide]	
4.4 μl/min/1E6		Cc1c(C(=O)C2CCN(C(=O)[C@H]3NC[C@@H]4C[C@@H]43)CC2)c2ccncc2n1-c1ccc(F)cc1C(=O)N(C(C)C)C(C)C (single isomer, unassigned) [Example 55-1]	1260 nM
3.8 μl/min/1E6	37 nM	COCCN(C)CCC[C@H](C(C)C)N1CCC(C(=O)c2cn(-c3ccc(F)cc3C(=O)N(C(C)C)C(C)C)c3cnccc23)CC1 (racemic) [Example 23, rac-(R)-5-Fluoro-N,N-diisopropyl-2-(3-(1-(6-((2-methoxyethyl)(methyl)amino)-2-methylhexan-3-yl)piperidine-4-carbonyl)-1H-pyrrolo[2,3-c]pyridin-1-yl)benzamide]	
<2.2 μl/min/1E6	23 nM	CC(C)c1ncccc1-c1cc(F)ccc1-n1cc(C(=O)C2CN(C(=O)[C@H]3N[C@@H]4CC[C@H]3C4)C2)c2ccncc21 [Example 10, (1-((1R,3S,4S)-2-Azabicyclo[2.2.1]heptane-3-carbonyl)azetidin-3-yl)(1-(4-fluoro-2-(2-isopropylpyridin-3-yl)phenyl)-1H-pyrrolo[2,3-c]pyridin-3-yl)methanone]	
<1.0 μl/min/1E6	40 nM	CC(C)N(C(=O)c1cc(F)ccc1-n1cc(C(=O)C2CCN(C(=O)[C@H]3NC4CCC3CC4)CC2)c2ccncc21)C(C)C [Example 20, (S)-2-(3-(1-(2-Azabicyclo[2.2.2]octane-3-carbonyl)piperidine-4-carbonyl)-1H-pyrrolo[2,3-c]pyridin-1-yl)-5-fluoro-N,N-diisopropylbenzamide]	
1.6 μl/min/1E6	57 nM	C=C1C[C@@H]2CC[C@H]1[C@@H](C(=O)N1CCC(C(=O)c3cn(-c4ccc(F)cc4C(=O)N(C(C)C)C(C)C)c4cnccc34)CC1)N2 [Example 18, 5-Fluoro-N,N-diisopropyl-2-(3-(1-((1S,3S,4R)-5-methylene-2-azabicyclo[2.2.2]-octane-3-carbonyl)piperidine-4-carbonyl)-1H-pyrrolo[2,3-c]pyridin-1-yl)benzamide]	
<1.0 μl/min/1E6	50 nM	CC(C)c1cnccc1-c1cc(F)ccc1-n1cc(C(=O)C2CN(C(=O)[C@H]3N[C@@H]4CC[C@H]3C4)C2)c2ccncc21.O=CO [Example 11, (1-((1R,3S,4S)-2-Azabicyclo[2.2.1]heptane-3-carbonyl)azetidin-3-yl)(1-(4-fluoro-2-(3-isopropylpyridin-4-yl)phenyl)-1H-pyrrolo[2,3-c]pyridin-3-yl)methanone 1·formic acid]	

SMILES	HH CLint [1]	IC50 (MOLM-13 cells; Homo sapiens, MOLM-13, 168 h)	IC50 (MOLM-13 cells)
CCN(C(=O)c1cc(F)ccc1-n1c(C)c(C(=O)[C@@H]2CCN(C(=O)[C@@H]3CCC4(CC4)N3)[C@@H](C)C2)c2ccncc21)C(C)C (single isomer, unassigned) [Example 52-2, N-Ethyl-5-fluoro-N-isopropyl-2-(2-methyl-3-((2R*,4S*)-2-methyl-1-((S)-4-azaspiro[2.4]heptane-5-carbonyl)piperidine-4-carbonyl)-1H-pyrrolo[2,3-c]pyridin-1-yl)benzamide]	3.5 μl/min/1E6		48 nM
Cc1c(C(=O)C2CCN(C(=O)[C@@H]3CCC(C)(C)N3)CC2)c2ccncc2n1-c1ccc(F)cc1C(=O)N(C(C)C)C(C)C (single isomer, unassigned) [Compound 56-2]	3.4 μl/min/1E6		40 nM
CC(C)N(C(=O)c1cc(F)ccc1-n1cc(C(=O)C2CCN(C(=O)[C@@H]3CC4(CC4)CN3)CC2)c2ccncc21)C(C)C [Example 26, (S)-2-(3-(1-(5-Azaspiro[2.4]heptane-6-carbonyl)piperidine-4-carbonyl)-1H-pyrrolo[2,3-c]pyridin-1-yl)-5-fluoro-N,N-diisopropylbenzamide]	<1.0 μl/min/1E6	103 nM	
CCN(C(=O)c1cc(F)ccc1-n1c(C)c(C(=O)C2CCN(C(=O)[C@@H]3CCC4(CC4)N3)CC2)c2ccncc21)C(C)C (single isomer, unassigned) [Example 49-2]	6.0 μl/min/1E6		80 nM
